Data published in patent publication US10028999B2, “PAR-1 based therapeutic conjugates and uses thereof” (TEL HASHOMER MEDICAL RESEARCH INFRASTRUCTURE AND SERVICES …, priority 2014, dated 2018).
Peptide text beside a SMILES is read from it. * marks the point of attachment. Tos = Cc1ccc(S(=O)(=O)*)cc1; CH2Cl = ClC*

Columns and labels:
[1] = system: blood coagulation (prothrombin time); experiment: Prothrombin time test; type: biochemical; details: for PT: without conjugate 11.5; for Potency score in PT test: most potent (1) to least potent (5)
[2] = system: blood coagulation (aPTT); experiment: Activated partial thromboplastin time test; type: biochemical; details: for aPTT: without conjugate 30.5; for Potency score in aPTT test: most potent (1) to least potent (5)
[3] = system: thrombin; experiment: Thrombin time test; type: biochemical; details: for TT: without conjugate 13.4; for Potency score in TT test: most potent (1) to least potent (5)
[4] = in vivo; details: ip, 2 micromolar, in 100 ul
Method: The concentrations of the peptide conjugates in the plasma of animals treated therewith was evaluated by a unique method that was based on the ability of the peptide conjugates to inhibit thrombin activity. […] The essay initiated by obtaining blood samples from animals which received the peptide conjugates (100 microliter containing 2 micromolar, i.p.). The blood samples, after being maintained in citrate buffered sample tubes, were subjected to centrifugation for plasma separation. Samples were then filtered through a membrane with a 10 kD molecular weight cutoff which excluded all blood coagulation factors (by addition of calcium to neutralize the anticoagulation effect of the citrate buffer). Coagulation factor-free plasma samples were then applied to the thrombin activity assay.
The resulting thrombin activities in each plasma sample either diluted (×10) or as is were given in arbitrary units (FIGS. 18-18D, diagonal shading and dotted bars, respectively). However, the actual concentration were deduced by comparing the activities to calibrated activities generated with known concentrations of the conjugate peptides. The calibration data included the following thrombin activities: activity in a sample of thrombin in the absence of plasma and conjugates (black bars, FIGS. 18A-18D); and activity in four samples of thrombin and known concentrations of the peptide conjugates (10 nM, 100 nM, 1 micromolar and 10 micromolar; bars 2nd to 5th from right in FIGS. 18A-18D).

[5] = system: rat Glioblastoma multiforme (GBM) tumor; experiment: Tumor size, edema and survival in GBM animal model; type: in vivo; details: for change in edema surrounding the tumor: 1 μl/h for 7 days; for change in tumor size: 1 μl/h for 7 days intratumoral, MRI, grade 1 and 2 tumors; for rats with severe initial tumors surviving to the second MRI: none of 3 in controls
Method: Cells (0.5×10^6 cells) from a highly malignant cell line of rat Glioblastoma multiforme (GBM) were injected by stereotactic methods into the parietal cortex of rats. Five (5) days later the brain of these rats were examined by MM and the tumors scored on a scale of 1-3 (1-small size tumor, 2-middle size tumor, 3-large size tumor) and for ventricular localization of the tumor. A catheter was placed in the brain tumor and attached to an osmotic pump (Alzet) releasing 1 μl/h for 7 days of one of the following three (3) treatments: saline (n=13), 6AA 2 μM (n=14) and 6AA 20 μM (n=14).
In order to account for the unequal distribution of initial tumor size, tumor and edema analyses were performed on rats with grade 1 and 2 tumors in the initial Mill (n=7, 6 and 5 for the saline, low and high treatment groups, respectively).
Survival was registered daily (FIG. 21).

[6] = system: CNS-1 glioma cells; experiment: Proliferation (XTT) of CNS-1 glioma cells; type: cell-based, rat; details: CNS-1 cells
Method: Several peptide moieties (Table 1) according to the present invention were synthesized. Proliferation was measured, by means of XTT, in C6 and CNS-1 glioma cell-lines (FIGS. 8A and 8B, respectively). In C6 cells, proliferation was measured before (black bar) and after cells were treated with the PAR-1 antagonist SCH79797 at various doses ranging from 10 nM to 10 μM (grey bars; FIG. 8A).
In another set of experiments, CNS-1 glioma cell-line was treated with increased doses of TLCK (125 nM to 14 mM), for 48 hours (FIG. 9; grey bars). Proliferation was measured by means of XTT in comparison to non-treated cells (control; black bar).
Initially, CNS-1 glioma cells were treated with increased concentrations of two peptide conjugates: a short conjugate of the formula tosyl-DPR-CK (comprising 3 amino acids, 3AA) or a long conjugate of the formula tosyl-NATLDPR-CK (comprising 7 amino acids, 7AA; SEQ ID NO: 4) in concentrations of 100 pM, 1 nM and 10 nM, for 48 hours (FIG. 10). FIG. 10 provides the results of an XTT assay used for assessing cell proliferation.
The effect of the peptide conjugate alone, or in combination with PAR-1 antagonist, SCH79797, on cell proliferation was determined in comparison to untreated cells or cells treated with PAR-1 antagonist (FIG. 13).

[7] = system: Factor Xa; experiment: Factor Xa activity test; type: biochemical; details: 100 μM; for Potency score in Factor Xa activity test: most potent (1) to least potent (5); for Fxa: without conjugate 0.11
[8] = molecular target: Protein C (Homo sapiens, UniProt P04070); experiment: Protein C activity test; type: biochemical; details: for aPC: without conjugate 109; for Potency score in Protein C activity test: most potent (1) to least potent (5)
[9] = system: CNS-1 glioma cells
Method: The thrombin-like activity of CNS-1 cells was initially measured in control cells and in cells treated with (i) the short peptide conjugate (tosyl-DPR-CK, corresponding to a conjugate that includes the peptide termed 3AA) or (ii) the long conjugate (tosyl-NATLDPR-CK, corresponding to a conjugate that includes the peptide termed 7AA (SEQ ID No. 4)) at high ([…]) and low (100 nM) concentrations (FIG. 16).

[10] = system: STZ-induced diabetic rats; experiment: Electrophysiological tests in STZ-induced diabetic rats treated with thrombin inhibitors; type: in vivo, rat
Method: (§1) Electrophysiological tests of the sciatic nerves were performed on day 32 PI (post-immunization/induction) in EAN model (FIGS. 3A-C) and 8 weeks after STZ induction (FIG. 4A-C). Rats were anesthetized with Phenobarbital (IP, 24 mg/kg). Two pairs of monopolar needle electrodes were used to stimulate the tail nerves. Stimulating cathodes were inserted to a depth of 4-5 mm at the base of the tail and 4 cm distally. An anode at each location was inserted into the skin (4-5 mm depth) 1 cm proximal to the cathode. A ground electrode was placed between the distal stimulating electrode and the active recording electrode. Electromyography (EMG) recordings of responses of the tail muscles to proximal and distal stimuli, made by a pair of ring electrodes coated with electrode jelly and placed 1 cm distally to the distal stimulating electrode, were collected. The tail skin was wiped with alcohol prior to placing the electrodes. […] Both proximal and distal latencies were measured using time intervals from the stimulus artifact to the first deflection from baseline. To calculate the motor nerve conduction velocity (MNCV), the distance between stimulating cathodes was divided by the latency difference. Amplitudes of the compound muscle action potential (CMAP) from both proximal and distal stimulations were measured from the negative to the positive peaks. The reduction of the proximal CMAP compared with that of the distal CMAP was calculated by the equation: [(distal CMAP-proximal CMAP)/distalCMAP×100] and was defined as the R ratio. Temperature differences were minimized by conducting the study as soon as the anesthesia had taken effect and by warming the tail with a heating lamp.
(§2) FIGS. 3 and 4 each include 3 graphs summarizing the results from electrophysiological tests of treated rats, as follows: distal latency (3A, 4A) referring to the time, in milliseconds, between distal stimulation to recording; conduction velocity (3B, 4B) referring to the distance over time, in meters/seconds; and amplitude (3C, 4C) referring to the size of the response as measured in millivolts.

[11] = system: EAN rats (experimental autoimmune neuritis); experiment: Electrophysiological tests in EAN rats treated with thrombin inhibitors; type: in vivo, rat
Method: as §1, §2

Protein C, sequence (P04070 212-461 limits assumed): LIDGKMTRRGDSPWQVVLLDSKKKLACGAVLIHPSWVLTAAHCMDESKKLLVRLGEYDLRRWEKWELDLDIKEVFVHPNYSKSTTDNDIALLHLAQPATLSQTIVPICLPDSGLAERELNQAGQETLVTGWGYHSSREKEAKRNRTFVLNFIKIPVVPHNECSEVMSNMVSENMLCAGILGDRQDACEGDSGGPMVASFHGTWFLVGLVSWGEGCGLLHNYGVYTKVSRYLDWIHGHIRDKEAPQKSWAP
Protein C, sequence (P04070 43-197 partner limits assumed): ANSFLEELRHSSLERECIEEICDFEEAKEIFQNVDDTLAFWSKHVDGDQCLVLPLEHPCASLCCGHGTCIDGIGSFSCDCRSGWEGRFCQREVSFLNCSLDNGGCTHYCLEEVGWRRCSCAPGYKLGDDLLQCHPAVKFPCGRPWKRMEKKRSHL

| PT ([1]; 10 nM) | PT ([1]; 1 μM) | Potency score in PT test ([1]; 100 μM) | PT ([1]; 100 μM) | aPTT ([2]; 10 nM) | aPTT ([2]; 1 μM) | Potency score in aPTT test ([2]; 100 μM) | aPTT ([2]; 100 μM) | TT ([3]; 10 nM) | Potency score in TT test ([3]; 1 μM) | TT ([3]; 1 μM) | TT ([3]; 100 μM) | Compound | level at time molar [4] | inhibition of cell proliferation ([6]; 48 hours, 10 μM, p<0.05) | Potency score in Factor Xa activity test [7] | Fxa [7] | aPC ([8]; 1 μM) | Potency score in Protein C activity test ([8]; 100 μM) | aPC ([8]; 100 μM) | other results |
| --- | --- | --- | --- | --- | --- | --- | --- | --- | --- | --- | --- | --- | --- | --- | --- | --- | --- | --- | --- | --- |
| 11.5 s | 11.4 s | 5 | 12.7 s | 30.8 s | 30.9 s | 5 | 42.6 s | 13.5 s | 5 | 14.6 s | > 80 s | Cc1ccc(S(=O)(=O)N[C@@H](CC(C)C)C(=O)N[C@@H](CC(=O)O)C(=O)N2CCC[C@H]2C(=O)N[C@@H](CCCNC(=N)N)C(=O)CCl)cc1 [4AA, tosyl-LDPR-CK] (Tos-LDPR-CH2Cl) | – | – | – | – | – | – | – | – |
| 11.5 s | 11.2 s | 2 | 17.4 s | 29.9 s | 30.7 s | 2 | 85.2 s | 13.5 s | 2 | 24.1 s | > 80 s | Cc1ccc(S(=O)(=O)N[C@@H](CC(N)=O)C(=O)N[C@@H](C)C(=O)N[C@H](C(=O)N[C@@H](CC(C)C)C(=O)N[C@@H](CC(=O)O)C(=O)N2CCC[C@H]2C(=O)N[C@@H](CCCNC(=N)N)C(=O)CCl)[C@@H](C)O)cc1 [7AA, tosyl-NATLDPR-CK] (Tos-NATLDPR-CH2Cl) | ~10 nM | Significant inhibition | 2 | 0.43 | 110 | 4 | 25 | inhibition of cell proliferation ([6]; XTT, 48 hours, 10 nM): significant inhibition; inhibition of cell proliferation, in combination with PAR-1 antagonist ([6]; XTT, PAR-1 antagonist 1 μM, compared to untreated cells and to PAR-1 antagonist alone): greater inhibition on cell proliferation; inhibition of cell proliferation, applied alone ([6]; XTT, compared to untreated cells and to PAR-1 antagonist alone): greater inhibition on cell proliferation; IC50 [9]: 0.01 nM |
| – | – | – | – | – | – | – | – | – | – | – | – | N alpha-tosyl-L-lysine chloromethyl ketone [TLCK] | – | – | – | – | – | – | – | concentration at which glioma-cell proliferation decreased ([6]; 48 hours): higher than 1 μM; proliferation-inhibition ([6]; 48 hours, 1 μM to 125 nM): No significant proliferation-inhibition; proliferation / cell death ([6]; 48 hours, 6.7 mM and 14 mM): caused cell death; proliferation-inhibition ([6]; 48 hours, 8-33 μM): significant proliferation-inhibition; proliferation, administered alone ([6]; XTT, 1 μM): did not inhibit proliferation; proliferation-inhibition, combined treatment with the PAR-1 antagonist ([6]; compared with PAR-1 antagonist (1 μM) alone): significantly increased said inhibitory effect; conduction velocity ([10]; STZ rats, daily treatment for 2 weeks, TLCK 4.4 mg/kg, NAPAP 120 μM/kg, untreated STZ 28.5±2.8): 41.95±3.9 m/sec; proximal amplitude ([10]; STZ rats, untreated STZ 0.48±0.13, insignificant): 1.81±0.8 millivolts; latency ([10]; STZ rats, untreated STZ 1.93±0.139, control 1.29±0.057): 1.44 ± 0.04 ms; internal bleeding ([10]; animals treated with thrombin inhibitors): caused severe internal bleeding; conduction velocity ([11]; daily treatment for 2 weeks, TLCK 4.4 mg/kg, NAPAP 120 μM/kg, untreated EAN 23.6±1.2): 40.55±6.7 m/sec; proximal amplitude ([11]; untreated EAN 0.76±0.33, non-significant): 1.36±0.49 millivolts; latency ([11]; untreated EAN 1.43±0.023, control 0.54±0.03): 1.28 ± 0.18 ms |

| Compound | PT ([1]; 10 nM) | PT ([1]; 1 μM) | Potency score in PT test ([1]; 100 μM) | PT ([1]; 100 μM) | aPTT ([2]; 10 nM) | aPTT ([2]; 1 μM) | Potency score in aPTT test ([2]; 100 μM) | aPTT ([2]; 100 μM) | TT ([3]; 10 nM) | Potency score in TT test ([3]; 1 μM) | TT ([3]; 1 μM) | TT ([3]; 100 μM) | level at time molar [4] | inhibition of cell proliferation ([6]; 48 hours, 10 μM, p<0.05) | Potency score in Factor Xa activity test [7] | Fxa [7] | aPC ([8]; 1 μM) | Potency score in Protein C activity test ([8]; 100 μM) | aPC ([8]; 100 μM) | other results |
| --- | --- | --- | --- | --- | --- | --- | --- | --- | --- | --- | --- | --- | --- | --- | --- | --- | --- | --- | --- | --- |
| Cc1ccc(S(=O)(=O)N[C@@H](C)C(=O)N[C@H](C(=O)N[C@@H](CC(C)C)C(=O)N[C@@H](CC(=O)O)C(=O)N2CCC[C@H]2C(=O)N[C@@H](CCCNC(=N)N)C(=O)CCl)[C@@H](C)O)cc1 [6AA, tosyl-ATLDPR-CK] (Tos-ATLDPR-CH2Cl) | 11.5 s | 11.4 s | 3 | 16.5 s | 30 s | 30.6 s | 3 | 67.6 s | 13.9 s | 3 | 18.5 s | > 80 s | < 10 nM | Significant inhibition | 3 | 0.36 | 108 | 2 | 11 | change in edema surrounding the tumor ([5]; 2 μM): reduction in the edema; change in tumor size ([5]; 2 μM): A similar trend was observed; rats with severe initial tumors surviving to the second MRI ([5]; 2 μM): 1 out of 3; change in edema surrounding the tumor ([5]; 20 μM): reduction in the edema; change in tumor size ([5]; 20 μM, p=0.030): reduced tumor size to half of the original size; survival ([5]; 20 μM, registered daily): clear trend to increased survival; rats with severe initial tumors surviving to the second MRI ([5]; 20 μM): all 3; proliferation compared to controls ([6]; 72 hours, all tested concentrations, p<0.05): significantly lower proliferation |
